Results on 18 molecules are retold here after ChEMBL document CHEMBL3792354, “Design, synthesis and evaluation of novel ferulic acid-memoquin hybrids as potential multifunctional agents for the treatment of Alzheimer's disease” (Bioorg Med Chem Lett, 2016).

Broadly, the inhibition is the change of the read-out against control, counted positive when it falls. In general, IC50 refers to the midpoint of a concentration-inhibition curve. Read a high IC50 as lower potency. In general, Papp refers to the rate of passage across a membrane or cell layer, normalised by area and donor concentration. Low readings indicate poor permeation, high ones ready permeation.

Data set [1] deals with Amyloid-beta precursor protein (Homo sapiens) (UniProt P05067). As to the kind of experiment: Inhibition of self-induced amyloid beta (1 to 42) aggregation (unknown origin) at 25 uM by Thioflavin T-based fluorometric assay.
Sequence of Amyloid-beta precursor protein (Homo sapiens) (P05067 whole entry): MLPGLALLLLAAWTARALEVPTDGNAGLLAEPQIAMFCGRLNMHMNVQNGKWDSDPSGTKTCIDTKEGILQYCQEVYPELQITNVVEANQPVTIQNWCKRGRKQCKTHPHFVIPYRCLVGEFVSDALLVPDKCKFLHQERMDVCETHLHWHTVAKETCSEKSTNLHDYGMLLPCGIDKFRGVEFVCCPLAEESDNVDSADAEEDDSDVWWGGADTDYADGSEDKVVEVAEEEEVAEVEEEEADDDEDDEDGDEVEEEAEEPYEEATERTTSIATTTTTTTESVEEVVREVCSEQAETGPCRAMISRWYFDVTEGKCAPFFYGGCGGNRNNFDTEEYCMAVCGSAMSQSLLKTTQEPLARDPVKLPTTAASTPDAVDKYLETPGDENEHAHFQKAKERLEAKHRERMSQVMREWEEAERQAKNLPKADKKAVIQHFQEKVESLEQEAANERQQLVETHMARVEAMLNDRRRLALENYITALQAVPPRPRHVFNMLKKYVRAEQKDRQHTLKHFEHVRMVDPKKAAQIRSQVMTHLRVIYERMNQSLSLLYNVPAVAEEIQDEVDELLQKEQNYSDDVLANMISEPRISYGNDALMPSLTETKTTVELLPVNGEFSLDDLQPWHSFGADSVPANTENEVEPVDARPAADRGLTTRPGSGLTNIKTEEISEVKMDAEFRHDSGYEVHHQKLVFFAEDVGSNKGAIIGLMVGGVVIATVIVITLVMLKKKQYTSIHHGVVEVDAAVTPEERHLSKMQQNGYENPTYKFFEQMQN
Data set [2] deals with Acetylcholinesterase (Electrophorus electricus, UniProt O42275). The data set is described as follows: Inhibition of Electrophorus electricus AChE pre-incubated for 15 mins before acetylthiocholine chloride substrate addition by Ellman assay. (Ellman's reagent forms a yellow product with free thiols.)
Sequence of Acetylcholinesterase (O42275 whole entry): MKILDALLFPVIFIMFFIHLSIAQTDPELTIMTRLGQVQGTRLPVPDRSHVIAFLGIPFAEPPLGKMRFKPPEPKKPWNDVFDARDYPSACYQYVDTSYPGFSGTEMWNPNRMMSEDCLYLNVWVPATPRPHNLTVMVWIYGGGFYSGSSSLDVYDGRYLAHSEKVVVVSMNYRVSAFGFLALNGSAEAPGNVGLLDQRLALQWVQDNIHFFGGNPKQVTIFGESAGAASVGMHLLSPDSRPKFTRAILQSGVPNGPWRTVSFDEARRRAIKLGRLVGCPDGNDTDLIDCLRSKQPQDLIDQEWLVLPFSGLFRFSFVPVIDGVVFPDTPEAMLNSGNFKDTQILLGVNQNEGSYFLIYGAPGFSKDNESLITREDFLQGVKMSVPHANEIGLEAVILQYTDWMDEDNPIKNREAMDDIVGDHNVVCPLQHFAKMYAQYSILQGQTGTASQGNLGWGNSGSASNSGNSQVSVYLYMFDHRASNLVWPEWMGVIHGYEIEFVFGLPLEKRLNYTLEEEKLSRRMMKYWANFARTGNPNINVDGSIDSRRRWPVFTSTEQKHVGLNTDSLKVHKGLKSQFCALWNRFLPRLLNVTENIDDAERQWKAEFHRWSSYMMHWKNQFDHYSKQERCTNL
The target in data set [3] is Cholinesterase (Equus caballus) (UniProt P81908). As to the kind of experiment: Inhibition of equine serum BuChE at 50 uM pre-incubated for 15 mins before butylthiocholine chloride substrate addition by Ellman assay.
Sequence of Cholinesterase (Equus caballus) (P81908 whole entry): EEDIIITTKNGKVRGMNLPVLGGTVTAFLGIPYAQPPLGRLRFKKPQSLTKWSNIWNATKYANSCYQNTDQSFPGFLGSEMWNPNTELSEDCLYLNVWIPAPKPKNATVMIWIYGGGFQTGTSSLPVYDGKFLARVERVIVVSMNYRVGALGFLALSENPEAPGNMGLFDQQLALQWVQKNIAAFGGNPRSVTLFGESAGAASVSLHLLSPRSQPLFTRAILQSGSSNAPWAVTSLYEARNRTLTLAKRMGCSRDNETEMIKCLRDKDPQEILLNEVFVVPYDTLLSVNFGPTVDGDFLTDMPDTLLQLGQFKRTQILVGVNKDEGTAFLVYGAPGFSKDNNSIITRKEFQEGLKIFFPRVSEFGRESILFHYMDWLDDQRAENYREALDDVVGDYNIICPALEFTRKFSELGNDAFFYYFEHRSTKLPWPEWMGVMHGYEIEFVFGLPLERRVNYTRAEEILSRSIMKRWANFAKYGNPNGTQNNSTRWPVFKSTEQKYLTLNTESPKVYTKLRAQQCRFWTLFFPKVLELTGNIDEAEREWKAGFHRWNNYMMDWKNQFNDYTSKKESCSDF
Data set [4] in a line: Antioxidant activity assessed as AAPH radical scavenging activity by measuring Trolox equivalent per microM of test compound measured every minute for 90 mins by ORAC-FL assay. The note with it: 1.5 h. Type of data set: physicochemical.
Data set [5] can be described thus: in vitro. The note with it: PAMPA.
Description: Permeability of the compound at 100 ug/ml by PAMPA-BBB assay
Data set [6] concerns SH-SY5Y. The data set is described as follows: Neuroprotective activity against hydrogen peroxide-induced cell injury in human SH-SY5Y cells assessed as cell viability at 1 uM incubated for 3 hrs after H2O2 exposure for 24 hrs by MTT assay. To be noted: read-out: Activity. Type of data set: functional. A general note: Tetrazolium dyes change colour on reduction, which living cells bring about.

For data set [7], the target named is Amyloid-beta precursor protein (Homo sapiens) (UniProt P05067). As to the kind of experiment: Inhibition of self-induced amyloid beta (1 to 42) aggregation (unknown origin) at 10 uM by Thioflavin T-based fluorometric assay.
Data set [8] has the same target. The data set is described as follows: Induction of disaggregation of self-induced amyloid beta (1 to 42) fibril formation (unknown origin) at 25 uM incubated for 24 hrs by Thioflavin T-based fluorometric assay.
Data set [9] shares this target. As to the kind of experiment: Inhibition of self-induced amyloid beta (1 to 42) aggregation (unknown origin) at 50 uM by Thioflavin T-based fluorometric assay.
Data set [10] is described as follows: Toxicity in human SH-SY5Y cells assessed as cell viability at 10 uM incubated for 24 hrs by MTT assay. The note with it: read-out: Activity. Type of data set: cell-based.
For data set [11], the system named is SH-SY5Y. The data set is described as follows: Neuroprotective activity against hydrogen peroxide-induced cell injury in human SH-SY5Y cells assessed as cell viability incubated for 3 hrs after H2O2 exposure for 24 hrs by MTT assay. The class given is functional, cell-based.
For data set [12], the target named is Amyloid-beta precursor protein (Homo sapiens) (UniProt P05067). As to the kind of experiment: Inhibition of self-induced amyloid beta (1 to 42) aggregation (unknown origin) by Thioflavin T-based fluorometric assay.
In data set [13] the test system is SH-SY5Y. The data set is described as follows: Neuroprotective activity against hydrogen peroxide-induced cell injury in human SH-SY5Y cells assessed as cell viability at 10 uM incubated for 3 hrs after H2O2 exposure for 24 hrs by MTT assay. Type of data set: functional. The note with it: read-out: Activity.

Regarding `CCN(CCCNC(=O)/C=C/c1ccc(O)c(OC)c1)Cc1ccccc1`, the results for the inhibition in data set [1] and in data set [3] were 33.3% and less than 5%, respectively. In [2], this molecule gave an IC50 of 31.4 µM. In addition, in [4], the Activity was 0.9 equiv.
In the case of `COc1cc(/C=C/C(=O)NCCCN(C)Cc2ccccc2)ccc1O`, the inhibition in data set [1] was 39.1%; in data set [3], less than 5%. The molecule further showed a 50% inhibitory concentration (IC50) in data set [2] of 34.7 µM. In addition, the Activity in data set [4] came to 1.2 equiv.
For `COc1cc(/C=C/C(=O)NCCCN(C)Cc2ccccc2OC)ccc1O` the same measures were 30.8%, 15.8%, 25.1 µM and 1.3 equiv.
In the case of `CC(=O)[C@H]1CC[C@H]2[C@@H]3CCC4=CC(=O)CC[C@]4(C)[C@H]3CC[C@]12C` [PROGESTERONE], the Papp at 100 ug/ml in data set [5] came to 15.9 ×10⁻⁶ cm/s.
Turning to `CCN(CCCCCCNC1=CC(=O)C(NCCCCCCN(CC)Cc2ccccc2OC)=CC1=O)Cc1ccccc1OC` [MEMOQUIN], the inhibition in [1] turned out to be 72.7%; in data set [3], 5.8%. The same molecule returned a concentration for half-maximal inhibition (IC50) in data set [2] of 0.0067 µM.
`CCn1cc(C(=O)O)c(=O)c2cc(F)c(N3CCNC(C)C3)c(F)c21` (stereo not drawn) [LOMEFLOXACIN] showed a Papp at 100 ug/ml in data set [5] of 0.52 ×10⁻⁶ cm/s.
Take `CCN(CCCCCCNC(=O)/C=C/c1ccc(O)c(OC)c1)Cc1ccccc1`: the inhibition in data set [1] was 37.4%; in [3], 17.2%. Further, in data set [2], the IC50 was found to be 8.2 µM. Besides, the Activity in data set [4] was 1.1 equiv.
On the same counts, the results for `CCN(CCCCNC(=O)/C=C/c1ccc(O)c(OC)c1)Cc1ccccc1` are 33.8%, less than 5%, 16.5 µM and 1.1 equiv.
For `COc1cc(/C=C/C(=O)NCCCCCCN(C)Cc2ccccc2)ccc1O` the same measures were 31.2%, less than 5%, 15.1 µM and 1.2 equiv.
`CN1C(C(=O)Nc2ccccn2)=C(O)c2ccccc2S1(=O)=O` [PIROXICAM] showed a Papp at 100 ug/ml in data set [5] of 0.63 ×10⁻⁶ cm/s.
`CCN(CCCCCCNC(=O)/C=C/c1ccc(O)c(OC)c1)Cc1ccccc1OC`: the inhibition in [1] is 38.1%; in data set [7], 26.8%; in data set [9], 49.3%; in [3], 36.2%; in data set [12], “Dose-dependent effect”. For the same molecule, in data set [5], the Papp at 100 ug/ml is 5.53 ×10⁻⁶ cm/s. For the same molecule, the viability at 1 µM in data set [6] amounted to 68.6%. For the same molecule, the IC50 in [2] is 3.2 µM. In addition, the Activity in data set [8] is 45.5%; in data set [4], 1.2 equiv; in data set [11], “Dose-dependent effect”. Besides, the viability at 24 h, 10 µM in [10] came out at 98.3%. In addition, the viability at 10 µM in [13] stood at 88.3%.
In the case of `COc1cc(/C=C/C(=O)O)ccc1O` [FERULATE], the inhibition is 28.3% in [1] and less than 5% in data set [3]. In data set [2], this molecule gave a half-inhibitory concentration (IC50) greater than 100 µM. Besides, the Activity in data set [4] came out at 1.1 equiv.
On the same counts, the results for `CCN(CCCCNC(=O)/C=C/c1ccc(O)c(OC)c1)Cc1ccccc1OC` are 38.3%, less than 5%, 8.6 µM and 1.3 equiv.
`COc1cc(/C=C/C(=O)NCCCCN(C)Cc2ccccc2OC)ccc1O`: the inhibition in [1] came to 32.5%; in data set [3], 34.6%. Further, the concentration for half-maximal inhibition (IC50) in data set [2] amounted to 18 µM. The Activity in data set [4] was found to be 1.2 equiv.
In the case of `COc1cc(/C=C/C(=O)NCCCCN(C)Cc2ccccc2)ccc1O`, the inhibition was 31.6% in data set [1] and less than 5% in data set [3]. The molecule further returned an IC50 in [2] of 29.6 µM. For the same molecule, in data set [4], the Activity turned out to be 1.3 equiv.
For `COc1cc(/C=C/C(=O)NCCCCCCN(C)Cc2ccccc2OC)ccc1O` the same measures were 36.6%, 27.6%, 8.5 µM and 1.3 equiv.
In the case of `COc1cc(/C=C/C(=O)CC(=O)/C=C/c2ccc(O)c(OC)c2)ccc1O`, in data set [8], the Activity was 57.6%.
Regarding `CCN(CCCNC(=O)/C=C/c1ccc(O)c(OC)c1)Cc1ccccc1OC`, the inhibition in [1] stood at 35.2%; in data set [3], 31.4%. In addition, the IC50 in data set [2] worked out at 15.9 µM. For the same molecule, the Activity in [4] was 1.1 equiv.
